Key:
Assay in all cases: relative viability (nuclei count vs DMSO), 5 days (fraction); higher = more cells survive
[1] = compound: Cc1ccc2nc(NCCN)c3ncc(C)n3c2c1 + CS(=O)(=O)N1CCN(Cc2cc3nc(-c4cccc5[nH]ncc45)nc(N4CCOCC4)c3s2)CC1 [Pictilisib] (partner 1 µM)
Summary of the method: (§1)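 Relative viability was taken as the ratio of nuclei in treated wells to nuclei in vehicle wells. Lung cancer cell lines in 1536-well plates received compounds by pin tool one day after seeding, either one drug alone or a fixed anchor-drug dose plus five library-drug doses (not always all listed) in √10 steps. Nuclei were counted on 4× images after 5 days of treatment, and values are medians of duplicate plates.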

[2] = compound: O=C(/C=C/c1ccccc1)NC(NC(=S)Nc1cccc2cccnc12)C(Cl)(Cl)Cl [Salubrinal] + N=C(N)NC(=N)NCCc1ccccc1 [Phenformin] (partner 250 µM)
Summary of the method: as §1

[3] = compound: Cc1ccc2nc(NCCN)c3ncc(C)n3c2c1 + NC(=O)Nc1cc(-c2cccc(F)c2)sc1C(=O)N[C@H]1CCCNC1 [AZD7762] (partner 0.2 µM)
Summary of the method: as §1

[4] = compound: Cc1ccc2nc(NCCN)c3ncc(C)n3c2c1 + CC(=O)Nc1cccc(-n2c(=O)n(C3CC3)c(=O)c3c(Nc4ccc(I)cc4F)n(C)c(=O)c(C)c32)c1 [Trametinib] (partner 0.02 µM)
Summary of the method: as §1

Row | Cell Line | relative viability ([1]; first compound 0.04 µM) | relative viability ([1]; first compound 0.1265 µM) | relative viability ([1]; first compound 0.4 µM) | relative viability ([1]; first compound 1.265 µM) | relative viability ([1]; first compound 4 µM) | relative viability ([2]; first compound 0.08 µM) | relative viability ([2]; first compound 0.253 µM) | relative viability ([2]; first compound 0.8 µM) | relative viability ([2]; first compound 2.53 µM) | relative viability ([2]; first compound 8 µM) | relative viability ([3]; first compound 0.04 µM) | relative viability ([3]; first compound 0.1265 µM) | relative viability ([3]; first compound 0.4 µM) | relative viability ([3]; first compound 1.265 µM) | relative viability ([3]; first compound 4 µM) | relative viability ([4]; first compound 0.04 µM) | relative viability ([4]; first compound 0.1265 µM) | relative viability ([4]; first compound 0.4 µM) | relative viability ([4]; first compound 1.265 µM) | relative viability ([4]; first compound 4 µM)
1 | NCI-H2405 | 0.442 | 0.443 | 0.441 | 0.511 | 0.396 | 0.42 | 0.387 | 0.441 | 0.329 | 0.408 | 0.855 | 0.682 | 0.758 | 0.671 | 0.639 | 0.648 | 0.629 | 0.674 | 0.589 | 0.581
2 | LCLC-97TM1 | 0.208 | 0.248 | 0.187 | 0.216 | 0.199 | 0.388 | 0.413 | 0.435 | 0.462 | 0.488 | 0.409 | 0.321 | 0.216 | 0.269 | 0.225 | 0.194 | 0.212 | 0.196 | 0.189 | 0.186
3 | NCI-H596 | 0.384 | 0.37 | 0.285 | 0.309 | 0.411 | 0.98 | 0.703 | 0.68 | 0.757 | 0.704 | 1.07 | 1.08 | 1.04 | 0.915 | 1.11 | 0.834 | 0.732 | 0.806 | 0.74 | 0.763
4 | NCI-H727 | 0.288 | 0.443 | 0.46 | 0.388 | 0.354 | 0.41 | 0.461 | 0.491 | 0.504 | 0.688 | 0.611 | – | 0.609 | 0.595 | 0.573 | 0.453 | – | 0.398 | 0.383 | 0.435
5 | H3255 | 0.555 | 0.431 | 0.487 | 0.38 | 0.456 | 0.364 | 0.349 | 0.44 | 0.386 | 0.335 | 0.923 | 0.963 | 0.829 | 0.76 | 0.746 | 0.562 | 0.554 | 0.564 | 0.523 | 0.575
6 | NCI-H2170 | 0.31 | 0.337 | 0.361 | 0.292 | 0.319 | 0.468 | 0.423 | 0.241 | 0.403 | 0.373 | 0.874 | 0.897 | 0.821 | 0.761 | 0.845 | 0.892 | 0.915 | 0.871 | 0.83 | 0.921
7 | NCI-H1437 | 0.427 | 0.449 | 0.443 | 0.369 | 0.374 | 0.314 | 0.251 | 0.343 | 0.283 | 0.306 | 1.08 | 1.12 | 1.16 | 0.901 | 1.04 | 0.578 | 0.463 | 0.445 | 0.415 | 0.381
8 | NCI-H358 | 0.348 | 0.394 | 0.364 | 0.379 | 0.367 | 0.365 | 0.27 | 0.36 | 0.319 | 0.278 | 0.51 | 0.573 | 0.413 | 0.515 | 0.401 | 0.133 | 0.153 | 0.13 | 0.137 | 0.129
9 | LU99A | 0.346 | 0.328 | 0.327 | 0.349 | 0.321 | 0.921 | 0.916 | 0.992 | 0.906 | 0.896 | 0.485 | 0.425 | 0.314 | 0.286 | 0.354 | 0.501 | 0.604 | 0.541 | 0.618 | 0.577
10 | HCC-827 | 0.947 | 0.929 | 0.891 | 0.86 | 1.07 | 0.408 | 0.521 | 0.356 | 0.392 | 0.341 | 0.222 | 0.265 | 0.224 | 0.207 | 0.18 | 0.557 | 0.51 | 0.539 | 0.626 | 0.555
11 | LK-2 | 0.585 | 0.547 | 0.604 | 0.406 | 0.463 | 0.502 | 0.466 | 0.675 | 0.3 | 0.395 | 0.393 | 0.612 | – | – | 0.347 | 0.921 | 0.576 | 0.682 | 0.617 | 0.672
12 | HCC-366 | 0.131 | 0.123 | 0.163 | 0.114 | 0.116 | 0.685 | 0.579 | 0.645 | 0.642 | 0.646 | 0.272 | 0.278 | 0.318 | 0.228 | 0.239 | 0.385 | 0.395 | 0.369 | 0.336 | 0.284
13 | BEN | 0.628 | 0.584 | 0.596 | 0.481 | 0.556 | 0.269 | 0.259 | 0.432 | 0.273 | 0.249 | 0.719 | 0.738 | 0.538 | 0.68 | 0.783 | 0.97 | 0.929 | 1.07 | 0.958 | 1.05
14 | NCI-H23 | 0.549 | 0.472 | 0.446 | 0.462 | 0.466 | 0.84 | 0.939 | 0.8 | 0.748 | 0.814 | 0.282 | 0.297 | 0.261 | 0.228 | 0.22 | 0.444 | 0.391 | 0.384 | 0.426 | 0.308
15 | NCI-H1395 | 0.689 | 0.638 | 0.642 | 0.828 | 0.551 | 0.473 | 0.459 | 0.451 | 0.453 | 0.431 | 0.409 | 0.435 | 0.43 | 0.422 | 0.398 | 0.977 | 0.983 | 0.989 | 0.828 | 0.878
16 | 201T | 0.701 | 0.716 | 0.639 | 0.66 | 0.652 | 0.44 | 0.32 | 0.508 | 0.462 | 0.456 | 0.639 | 0.569 | 0.66 | 0.598 | 0.618 | 0.72 | 0.696 | 0.713 | 0.738 | 0.684
17 | NCI-H1793 | 0.393 | 0.381 | 0.383 | 0.389 | 0.309 | 0.446 | 0.349 | 0.391 | 0.394 | 0.33 | 0.506 | 0.411 | 0.361 | 0.39 | 0.417 | 0.371 | 0.363 | 0.525 | 0.363 | 0.4

From the supplement of paper PMC10307832
